Measured values published in patent publication US10780080B2, “Benzamide and active compound compositions and methods of use” (TRANSLATIONAL DRUG DEVELOPMENT, LLC, priority 2016, dated 2020).
Values joined by “and” are separate entries in the source; they are usually repeats but may differ in a detail not shown here. Equal values may be shown once. “Also recorded” adds a separate entry of the source. Each block holds one compound with its values, some of them ahead of it.

Experiments:
[1] = solvents named in the value; cited from earlier work
[2] = tested on: human acute leukemia cell line (HL-60); experiment: CellTiter-Glo cell viability assay, single agent growth inhibition; format: cell-based; settings: HL-60, 72 hours treatment
Description: Cell viability in the presence of varying concentrations of the benzamide compounds at different time points was used to assess cytotoxicity and the effect of the compounds on cell proliferation.
Cell Viability Assay-Cell viability was measured by the CellTiter-Glo® cell viability assay Promega (Madison, Wis.). The CellTiter-Glo® Luminescent Cell Viability Assay is a homogeneous method to determine the number of viable cells in culture based on quantitation of the ATP present, which signals the presence of metabolically active cells. Following treatment, CellTiter-Glo® is added to treatment wells and incubated at 37° C. luminescence values were measured at using a Molecular Devices Spectramax microplate reader.
Single Agent Studies—Cells were grown to 70% confluency, trypsinized, counted, and seeded in 96 well flat-bottom plates at a final concentration of 2.5×10^3-5×10^3 cells/well (Day 0). Cells were allowed to incubate in growth media for 24 hours to allow for maximum adhesion. Treatment with the test agents or standard agents began on Day 1 and continued for 72 hours. At the 72-hour time point, treatment containing media was removed. Viable cell numbers are quantified by the CellTiter-Glo® cell viability assay as described above. Experiments were run with triplicate concentrations to determine growth inhibitory activity. Results from these studies were used to calculate an IC50 value (concentration of drug that inhibits cell growth by 50 percent of control) for each compound.
Data Collection—For single agent and combination studies, data from each experiment was collected and expressed as % Cell Growth using the following calculation: % Cell Growth=(ftest/fvehicle)×100
Where ftest is the luminescence of the tested sample, and fvehicle is the luminescence of the vehicle in which the drug is dissolved. Dose response graphs and IC50 values were generated using Prism 6 software (GraphPad).

[3] = tested on: intratumoral CD8 T-cells and natural killer cells; experiment: Intratumoral immune cells in tumor bearing mice; format: in vivo
CT-26 murine colon tumor = experiment: CT-26 tumor volume growth, ID #24 and anti-4-1BB; format: in vivo; settings: Anti-m4-1BB 0.05 mg/kg IP QDx1, in mm³
cancer cell models = settings: literature reports; cited from earlier work

Structure (SMILES): Nc1ncn([C@@H]2O[C@H](CO)[C@@H](O)[C@H]2O)c(=O)n1 [Azacitidine, 4-amino-1-β-D-ribofuranozyl-s-triazin-2(1H)-one]
solubility [1]: insoluble in acetone, ethanol and methyl ketone; also recorded: slightly soluble in ethanol/water (50/50), propylene glycol and polyethylene glycol; also recorded: sparingly soluble in water, water-saturated octanol, 5% dextrose in water, N-methyl-2-pyrrolidone, normal saline and 5% Tween 80 in water; also recorded: soluble in dimethylsulfoxide (DMSO)

Structure (SMILES): O=C(NO)c1ccc(Nc2nc3ccccc3n2C2CCCCCC2)cc1 [ID #26, 4-(1-cycloheptyl-1H-benzo[d]imidazol-2-ylamino)-N-hydroxybenzamide]
IC50 [2]: 660 nM

Structure (SMILES): Nc1ncn([C@H]2C[C@H](O)[C@@H](CO)O2)c(=O)n1 [Decitabine, 4-amino-1-(2-deoxy-β-D-erythro-pentofuranosyl)-1,3,5-triazin-2(1H)one]
effects on cancer cells (cancer cell models): suppression of growth and apoptosis; also recorded: causes G2 arrest, reduces clonogenic survival, and inhibits growth in cells
solubility [1]: slightly soluble in ethanol/water (50/50), methanol/water (50/50) and methanol; also recorded: sparingly soluble in water; also recorded: soluble in dimethylsulfoxide (DMSO)

Second part, led by results:

IC50 [2]: 1150 nM
Structure (SMILES): O=C(NO)c1ccc(Nc2nc3ccccc3n2CC2CCCCC2)cc1 [ID #24, 4-(1-(cyclohexylmethyl)-1H-benzo[d]imidazol-2-ylamino)-N-hydroxybenzamide]
numbers of intratumoral CD8 T-cells and natural killer cells [3]: increased numbers of intratumoral CD8 T-cells and natural killer cells
tumor volume, individual animal (ID 001-005) (CT-26 murine colon tumor; Day 1, Example #24 150.00 mg/kg PO QD to end): 85
tumor volume, individual animal (ID 001-005) (CT-26 murine colon tumor; Day 5, Example #24 150.00 mg/kg PO QD to end): 73
tumor volume, individual animal (ID 001-005) (CT-26 murine colon tumor; Day 8, Example #24 150.00 mg/kg PO QD to end): 65
tumor volume, individual animal (ID 001-005) (CT-26 murine colon tumor; Day 9, Example #24 150.00 mg/kg PO QD to end): 65
tumor volume, individual animal (ID 001-005) (CT-26 murine colon tumor; Day 12, Example #24 150.00 mg/kg PO QD to end): 68 and 590
tumor volume, individual animal (ID 001-005) (CT-26 murine colon tumor; Day 14, Example #24 150.00 mg/kg PO QD to end): 67

IC50 [2]: 3900 nM
Structure (SMILES): O=C(NO)c1ccc(Nc2nc3ccccc3n2C2CCCCC2)cc1 [ID #25, 4-(1-cyclohexyl-1H-benzo[d]imidazol-2-ylamino)-N-hydroxybenzamide]
